Test results from the kinase profiling compilation of Christmann-Franck et al. (2016).

Legend:
Assay in all cases: KINOMEscan competition binding
Settings in all cases: compound 10.0 µM
DDR2 (human) = DDR2 (human) (UniProt Q16832)
CSK (human) = CSK (human) (UniProt P41240)
NEK11 (human) = NEK11 (human) (UniProt Q8NG66)
PKN1 (human) = PKN1 (human) (UniProt Q16512)
BMPR1A (human) = BMPR1A (human) (UniProt P36894)
[1] = test system: EGFR (human), P00533 [G719C]
[2] = test system: FLT3 (human), P36888 [R834Q]
CDK14 (human) = CDK14 (human) (UniProt O94921)
[3] = test system: KIT (human), P10721 [D816V]
MAP2K7 (human) = MAP2K7 (human) (UniProt O14733)
STK24 (human) = STK24 (human) (UniProt Q9Y6E0)
STK11 (human) = STK11 (human) (UniProt Q15831)
EPHA7 (human) = EPHA7 (human) (UniProt Q15375)
[4] = test system: LRRK2 (human), Q5S007 [G2019S]
CDC2L2 (human) = CDC2L2 (human) (UniProt Q9UQ88)
TNIK (human) = TNIK (human) (UniProt Q9UKE5)
[5] = target: TYK2 JH1 catalytic (human) (UniProt P29597)
NIM1 (human) = NIM1 (human) (UniProt Q8IY84)
PIP4K2B (human) = PIP4K2B (human) (UniProt P78356)
PRKD2 (human) = PRKD2 (human) (UniProt Q9BZL6)
CDK18 (human) = CDK18 (human) (UniProt Q07002)
PI4KB (human) = PI4KB (human) (UniProt Q9UBF8)
PRKCD (human) = PRKCD (human) (UniProt Q05655)
TRPM6 (human) = TRPM6 (human) (UniProt Q9BX84)
MYLK (human) = MYLK (human) (UniProt Q15746)
TESK1 (human) = TESK1 (human) (UniProt Q15569)
MAPK8 (human) = MAPK8 (human) (UniProt P45983)
CDK15 (human) = CDK15 (human) (UniProt Q96Q40)
CHEK1 (human) = CHEK1 (human) (UniProt O14757)
RPS6KA1 KD2 (human) = RPS6KA1 KD2 (human) (UniProt Q15418)
EPHA2 (human) = EPHA2 (human) (UniProt P29317)
SNRK (human) = SNRK (human) (UniProt Q9NRH2)
MAP3K9 (human) = MAP3K9 (human) (UniProt P80192)
MAK (human) = MAK (human) (UniProt P20794)
MKNK2 (human) = MKNK2 (human) (UniProt Q9HBH9)
PAK6 (human) = PAK6 (human) (UniProt Q9NQU5)
PRKD3 (human) = PRKD3 (human) (UniProt O94806)
MAPK4 (human) = MAPK4 (human) (UniProt P31152)
DCLK1 (human) = DCLK1 (human) (UniProt O15075)
GRK7 (human) = GRK7 (human) (UniProt Q8WTQ7)
CHUK (human) = CHUK (human) (UniProt O15111)
NEK1 (human) = NEK1 (human) (UniProt Q96PY6)

Chain of PAK6 (human) (Q9NQU5 whole entry, looked up): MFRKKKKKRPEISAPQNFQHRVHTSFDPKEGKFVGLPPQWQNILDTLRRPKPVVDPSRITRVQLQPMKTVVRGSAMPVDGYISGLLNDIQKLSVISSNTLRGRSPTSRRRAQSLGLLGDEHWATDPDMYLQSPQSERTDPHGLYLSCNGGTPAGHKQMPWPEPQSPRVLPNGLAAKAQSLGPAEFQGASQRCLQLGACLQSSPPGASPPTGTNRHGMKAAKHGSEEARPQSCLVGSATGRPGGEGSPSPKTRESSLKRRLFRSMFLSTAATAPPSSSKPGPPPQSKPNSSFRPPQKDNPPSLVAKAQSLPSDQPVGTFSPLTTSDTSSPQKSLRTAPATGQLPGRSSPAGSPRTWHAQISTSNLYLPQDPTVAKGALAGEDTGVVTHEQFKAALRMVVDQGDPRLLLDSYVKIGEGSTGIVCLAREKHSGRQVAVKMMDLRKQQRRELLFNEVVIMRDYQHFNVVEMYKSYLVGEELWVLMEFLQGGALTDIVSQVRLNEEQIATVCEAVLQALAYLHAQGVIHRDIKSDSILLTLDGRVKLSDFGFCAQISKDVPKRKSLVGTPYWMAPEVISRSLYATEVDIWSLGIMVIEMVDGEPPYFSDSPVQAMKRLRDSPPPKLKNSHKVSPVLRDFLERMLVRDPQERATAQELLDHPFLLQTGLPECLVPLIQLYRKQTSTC
Chain of MAPK4 (human) (P31152 whole entry, looked up): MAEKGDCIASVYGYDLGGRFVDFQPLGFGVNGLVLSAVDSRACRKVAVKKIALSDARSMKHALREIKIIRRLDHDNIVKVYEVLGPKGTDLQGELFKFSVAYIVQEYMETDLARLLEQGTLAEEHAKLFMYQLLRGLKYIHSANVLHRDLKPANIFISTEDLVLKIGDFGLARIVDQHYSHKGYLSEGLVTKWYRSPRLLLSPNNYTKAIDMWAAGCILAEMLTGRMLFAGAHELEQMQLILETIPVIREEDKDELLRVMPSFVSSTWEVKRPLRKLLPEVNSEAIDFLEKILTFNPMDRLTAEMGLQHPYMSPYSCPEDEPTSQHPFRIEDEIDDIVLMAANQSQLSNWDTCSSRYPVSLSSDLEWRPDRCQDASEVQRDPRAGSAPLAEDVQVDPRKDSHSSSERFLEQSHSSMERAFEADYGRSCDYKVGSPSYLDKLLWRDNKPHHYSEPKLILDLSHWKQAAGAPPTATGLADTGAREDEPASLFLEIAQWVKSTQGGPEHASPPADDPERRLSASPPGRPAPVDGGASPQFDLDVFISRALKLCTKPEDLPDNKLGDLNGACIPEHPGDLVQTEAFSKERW
Chain of NEK11 (human) (Q8NG66 whole entry, looked up): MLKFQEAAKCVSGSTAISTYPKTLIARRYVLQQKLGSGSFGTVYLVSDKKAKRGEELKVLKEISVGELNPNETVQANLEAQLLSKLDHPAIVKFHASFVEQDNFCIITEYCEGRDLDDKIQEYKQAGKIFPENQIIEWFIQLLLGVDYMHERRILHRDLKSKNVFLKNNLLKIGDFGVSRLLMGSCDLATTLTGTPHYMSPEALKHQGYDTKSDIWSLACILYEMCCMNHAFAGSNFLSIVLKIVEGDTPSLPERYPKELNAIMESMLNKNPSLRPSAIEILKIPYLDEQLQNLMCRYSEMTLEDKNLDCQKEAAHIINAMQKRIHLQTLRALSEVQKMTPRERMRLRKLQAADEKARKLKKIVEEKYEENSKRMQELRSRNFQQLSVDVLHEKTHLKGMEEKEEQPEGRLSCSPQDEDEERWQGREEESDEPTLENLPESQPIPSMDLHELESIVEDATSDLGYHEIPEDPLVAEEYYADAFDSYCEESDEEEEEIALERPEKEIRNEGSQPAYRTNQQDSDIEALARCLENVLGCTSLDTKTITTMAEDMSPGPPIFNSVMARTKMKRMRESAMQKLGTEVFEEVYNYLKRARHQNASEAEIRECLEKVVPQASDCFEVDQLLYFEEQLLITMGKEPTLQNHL
Chain of CHUK (human) (O15111 whole entry, looked up): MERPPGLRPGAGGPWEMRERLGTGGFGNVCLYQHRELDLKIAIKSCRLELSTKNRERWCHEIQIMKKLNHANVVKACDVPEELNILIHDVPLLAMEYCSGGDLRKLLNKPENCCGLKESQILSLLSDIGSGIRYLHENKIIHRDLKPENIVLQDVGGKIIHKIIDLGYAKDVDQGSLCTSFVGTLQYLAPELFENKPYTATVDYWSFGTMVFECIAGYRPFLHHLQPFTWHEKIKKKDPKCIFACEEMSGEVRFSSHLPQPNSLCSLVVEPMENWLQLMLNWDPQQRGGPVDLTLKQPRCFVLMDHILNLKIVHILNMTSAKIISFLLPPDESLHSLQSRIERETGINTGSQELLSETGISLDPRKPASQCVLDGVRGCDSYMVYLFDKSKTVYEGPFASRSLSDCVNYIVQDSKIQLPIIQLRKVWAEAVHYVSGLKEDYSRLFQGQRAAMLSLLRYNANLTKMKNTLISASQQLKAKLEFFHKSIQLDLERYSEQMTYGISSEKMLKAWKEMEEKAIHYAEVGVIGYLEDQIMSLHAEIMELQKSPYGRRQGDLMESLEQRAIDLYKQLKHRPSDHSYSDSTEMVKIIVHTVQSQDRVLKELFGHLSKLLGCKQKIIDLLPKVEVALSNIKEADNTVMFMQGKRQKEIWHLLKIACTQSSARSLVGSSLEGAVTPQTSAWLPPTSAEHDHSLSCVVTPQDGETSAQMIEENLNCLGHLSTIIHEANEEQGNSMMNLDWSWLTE
Chain of CSK (human) (P41240 whole entry, looked up): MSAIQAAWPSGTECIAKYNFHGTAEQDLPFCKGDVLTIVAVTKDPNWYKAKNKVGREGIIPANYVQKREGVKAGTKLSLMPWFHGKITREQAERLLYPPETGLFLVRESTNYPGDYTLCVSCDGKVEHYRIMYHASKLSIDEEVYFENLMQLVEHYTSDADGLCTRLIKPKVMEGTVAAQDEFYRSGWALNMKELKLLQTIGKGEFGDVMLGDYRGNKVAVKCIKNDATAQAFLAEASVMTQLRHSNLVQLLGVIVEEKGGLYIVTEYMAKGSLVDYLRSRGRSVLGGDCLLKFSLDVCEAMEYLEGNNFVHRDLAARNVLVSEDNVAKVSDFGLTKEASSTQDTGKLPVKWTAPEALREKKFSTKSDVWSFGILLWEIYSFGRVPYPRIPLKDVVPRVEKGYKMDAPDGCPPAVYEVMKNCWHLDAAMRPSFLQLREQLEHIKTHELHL
Chain of PRKD2 (human) (Q9BZL6 whole entry, looked up): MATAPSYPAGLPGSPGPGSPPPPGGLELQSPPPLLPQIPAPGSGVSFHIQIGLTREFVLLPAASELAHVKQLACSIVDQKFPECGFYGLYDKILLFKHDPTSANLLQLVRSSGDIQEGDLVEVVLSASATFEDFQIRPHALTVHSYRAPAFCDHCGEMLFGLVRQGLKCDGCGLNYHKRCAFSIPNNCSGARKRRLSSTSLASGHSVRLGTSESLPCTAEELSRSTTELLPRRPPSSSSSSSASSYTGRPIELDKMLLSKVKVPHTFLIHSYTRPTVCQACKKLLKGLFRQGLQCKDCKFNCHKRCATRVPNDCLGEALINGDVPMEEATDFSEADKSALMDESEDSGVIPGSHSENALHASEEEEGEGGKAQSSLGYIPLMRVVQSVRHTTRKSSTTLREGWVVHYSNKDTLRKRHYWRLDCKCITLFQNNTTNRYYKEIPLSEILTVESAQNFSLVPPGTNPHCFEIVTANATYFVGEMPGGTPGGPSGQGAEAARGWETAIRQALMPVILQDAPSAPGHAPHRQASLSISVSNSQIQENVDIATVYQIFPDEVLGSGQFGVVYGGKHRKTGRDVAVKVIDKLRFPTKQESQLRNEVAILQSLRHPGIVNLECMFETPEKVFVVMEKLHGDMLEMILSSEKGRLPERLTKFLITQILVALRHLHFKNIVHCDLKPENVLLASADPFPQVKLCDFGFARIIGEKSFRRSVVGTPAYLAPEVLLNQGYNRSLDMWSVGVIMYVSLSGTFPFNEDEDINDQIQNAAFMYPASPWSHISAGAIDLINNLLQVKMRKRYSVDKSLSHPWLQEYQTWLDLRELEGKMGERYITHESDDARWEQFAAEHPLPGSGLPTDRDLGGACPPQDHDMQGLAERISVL
Chain of PI4KB (human) (Q9UBF8 whole entry, looked up): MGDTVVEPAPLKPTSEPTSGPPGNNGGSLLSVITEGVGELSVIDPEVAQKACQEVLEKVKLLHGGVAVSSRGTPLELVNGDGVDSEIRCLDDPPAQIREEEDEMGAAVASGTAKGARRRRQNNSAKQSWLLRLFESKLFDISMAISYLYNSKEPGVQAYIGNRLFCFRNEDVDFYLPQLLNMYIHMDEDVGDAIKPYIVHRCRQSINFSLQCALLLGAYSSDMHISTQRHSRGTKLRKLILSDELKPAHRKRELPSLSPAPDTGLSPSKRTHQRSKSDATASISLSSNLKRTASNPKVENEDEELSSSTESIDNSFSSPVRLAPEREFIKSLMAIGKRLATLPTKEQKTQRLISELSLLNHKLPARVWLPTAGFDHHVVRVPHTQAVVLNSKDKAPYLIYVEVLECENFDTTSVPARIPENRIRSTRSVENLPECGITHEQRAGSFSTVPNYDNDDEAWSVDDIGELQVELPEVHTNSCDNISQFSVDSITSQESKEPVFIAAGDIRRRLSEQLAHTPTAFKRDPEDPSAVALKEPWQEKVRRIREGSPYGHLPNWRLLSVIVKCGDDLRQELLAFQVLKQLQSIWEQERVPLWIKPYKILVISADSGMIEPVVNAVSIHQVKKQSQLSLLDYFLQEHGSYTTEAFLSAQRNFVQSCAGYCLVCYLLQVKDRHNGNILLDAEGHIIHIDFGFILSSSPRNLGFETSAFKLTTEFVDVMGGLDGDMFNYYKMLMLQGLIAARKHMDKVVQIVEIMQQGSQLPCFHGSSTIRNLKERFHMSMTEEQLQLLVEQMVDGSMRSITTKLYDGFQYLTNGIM

Compound: Cc1cc([C@@H](C)Nc2ccccc2C(=O)O)c2nc(N3CCOCC3)cc(=O)n2c1
- kinase still bound, per cent of control (DDR2 (human)): 100%
- kinase still bound, per cent of control (CSK (human)): 98%
- kinase still bound, per cent of control (NEK11 (human)): 68%
- kinase still bound, per cent of control (PKN1 (human)): 100%
- kinase still bound, per cent of control (BMPR1A (human)): 79%
- kinase still bound, per cent of control [1]: 100%
- kinase still bound, per cent of control [2]: 100%
- kinase still bound, per cent of control (CDK14 (human)): 100%
- kinase still bound, per cent of control [3]: 100%
- kinase still bound, per cent of control (MAP2K7 (human)): 100%
- kinase still bound, per cent of control (STK24 (human)): 85%
- kinase still bound, per cent of control (STK11 (human)): 97%
- kinase still bound, per cent of control (EPHA7 (human)): 87%
- kinase still bound, per cent of control [4]: 90%
- kinase still bound, per cent of control (CDC2L2 (human)): 100%
- kinase still bound, per cent of control (TNIK (human)): 97%
- kinase still bound, per cent of control [5]: 100%
- kinase still bound, per cent of control (NIM1 (human)): 100%
- kinase still bound, per cent of control (PIP4K2B (human)): 84%
- kinase still bound, per cent of control (PRKD2 (human)): 97%
- kinase still bound, per cent of control (CDK18 (human)): 83%
- kinase still bound, per cent of control (PI4KB (human)): 89%
- kinase still bound, per cent of control (PRKCD (human)): 100%
- kinase still bound, per cent of control (TRPM6 (human)): 64%
- kinase still bound, per cent of control (MYLK (human)): 43%
- kinase still bound, per cent of control (TESK1 (human)): 100%
- kinase still bound, per cent of control (MAPK8 (human)): 100%
- kinase still bound, per cent of control (CDK15 (human)): 100%
- kinase still bound, per cent of control (CHEK1 (human)): 64%
- kinase still bound, per cent of control (RPS6KA1 KD2 (human)): 76%
- kinase still bound, per cent of control (EPHA2 (human)): 99%
- kinase still bound, per cent of control (SNRK (human)): 54%
- kinase still bound, per cent of control (MAP3K9 (human)): 100%
- kinase still bound, per cent of control (MAK (human)): 100%
- kinase still bound, per cent of control (MKNK2 (human)): 100%
- kinase still bound, per cent of control (PAK6 (human)): 96%
- kinase still bound, per cent of control (PRKD3 (human)): 85%
- kinase still bound, per cent of control (MAPK4 (human)): 82%
- kinase still bound, per cent of control (DCLK1 (human)): 100%
- kinase still bound, per cent of control (GRK7 (human)): 100%
- kinase still bound, per cent of control (CHUK (human)): 69%
- kinase still bound, per cent of control (NEK1 (human)): 100%
